Laboratory results: patent US8987467B2, “Substituted pyrazole azetidines as sphingosine receptor modulators” (Allergan, Inc., priority 2013, dated 2015)

molecular target: T1, human S1P1 receptor (Homo sapiens, UniProt P21453); experiment: GTP γ35S binding assay for S1P1 activity; format: biochemical; settings: membranes of cells stably expressing the S1P1 receptor; test concentrations 0.08 to 5,000 nM; 30 min at 25° C.; read-out: S1P1 EC50 (Activity potency: S1P1 receptor from GTP γ35S)
T1 construct: expressed in transfected cells; membranes used
T1 sequence (P21453 whole entry): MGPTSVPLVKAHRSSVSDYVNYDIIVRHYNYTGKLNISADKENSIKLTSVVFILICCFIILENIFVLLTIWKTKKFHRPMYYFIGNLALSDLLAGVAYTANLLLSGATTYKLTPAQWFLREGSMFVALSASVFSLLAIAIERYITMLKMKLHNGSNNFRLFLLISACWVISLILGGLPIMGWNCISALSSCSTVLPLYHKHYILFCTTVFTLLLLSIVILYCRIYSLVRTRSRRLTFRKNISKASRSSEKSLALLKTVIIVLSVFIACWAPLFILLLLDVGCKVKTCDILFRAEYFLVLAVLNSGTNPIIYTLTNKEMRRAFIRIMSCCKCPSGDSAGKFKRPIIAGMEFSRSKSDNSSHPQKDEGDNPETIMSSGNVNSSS
Procedure: Compounds were tested for S1P1 activity using the GTP γ^35S binding assay. These compounds may be assessed for their ability to activate or block activation of the human S1P1 receptor in cells stably expressing the S1P1 receptor.
GTP γ^35S binding was measured in the medium containing (mM) HEPES 25, pH 7.4, MgCl2 10, NaCl 100, dithiothreitol 0.5, digitonin 0.003%, 0.2 nM GTP γ^355, and 5 μg membrane protein in a volume of 150 μl. Test compounds were included in the concentration range from 0.08 to 5,000 nM unless indicated otherwise. Membranes were incubated with 100 μM 5′-adenylylimidodiphosphate for 30 min, and subsequently with 10 μM GDP for 10 min on ice. Drug solutions and membrane were mixed, and then reactions were initiated by adding GTP γ^355 and continued for 30 min at 25° C. Reaction mixtures were filtered over Whatman GF/B filters under vacuum, and washed three times with 3 mL of ice-cold buffer (HEPES 25, pH 7.4, MgCl2 10 and NaCl 100). Filters were dried and mixed with scintillant, and counted for ^35S activity using a β-counter. Agonist-induced GTP γ^355 binding was obtained by subtracting that in the absence of agonist. Binding data were analyzed using a non-linear regression method. In case of antagonist assay, the reaction mixture contained 10 nM S1P in the presence of test antagonist at concentrations ranging from 0.08 to 5000 nM.

Going from `CCc1cc(-c2noc(C3=NN(CC)C(c4ccccc4)C3)n2)ccc1CN1CC(C(=O)O)C1` (stereo not shown) [Compound 5, 1-{2-ethyl-4-[5-(1-ethyl-5-phenyl-4,5-dihydro-1H-pyrazol-3-yl)-1,2,4-oxadiazol-3-yl]benzyl}azetidine-3-carboxylic acid] to `CCN1N=C(c2nc(-c3ccc(CN4CC(C(=O)O)C4)cc3)no2)CC1c1ccccc1` (stereo not shown) [Compound 1, 1-{4-[5-(1-ethyl-5-phenyl-4,5-dihydro-1H-pyrazol-3-yl)-1,2,4-oxadiazol-3-yl]benzyl}azetidine-3-carboxylic acid], the EC50 rises from 24 nM to 252 nM (10-fold). The first is the more potent here.

`CCN1N=C(c2nc(-c3cc(F)c(CN4CC(C(=O)O)C4)c(F)c3)no2)CC1c1ccccc1` (stereo not shown) [Compound 4, 1-{4-[5-(1-ethyl-5-phenyl-4,5-dihydro-1H-pyrazol-3-yl)-1,2,4-oxadiazol-3-yl]-2,6-difluorobenzyl}azetidine-3-carboxylic acid] and `CCCN1N=C(c2nc(-c3ccc(CN4CC(C(=O)O)C4)cc3)no2)CC1c1ccccc1` (stereo not shown) [Compound 6, 1-{4-[5-(5-phenyl-1-propyl-4,5-dihydro-1H-pyrazol-3-yl)-1,2,4-oxadiazol-3-yl]benzyl}azetidine-3-carboxylic acid] are within 1.5-fold of each other in EC50: 51 nM for the first, 75 nM for the second.
